Tests used:
Assay in all cases: relative viability (nuclei count vs DMSO), 5 days (fraction); higher = more cells survive
[1] = compound: CN1CCC(CNc2ccc3ncc(-c4cccc(OC(F)(F)F)c4)n3n2)CC1 [SGI-1776] + COc1cc2c(Oc3ccc(NC(=O)C4(C(=O)Nc5ccc(F)cc5)CC4)cc3F)ccnc2cc1OCCCN1CCOCC1 [Foretinib] (partner 0.25 µM)
How it was run: (§1)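 Relative viability equals treated-well nuclei counts divided by vehicle-well nuclei counts. Counts came from 4× images of lung cancer cell lines grown in 1536-well plates for 5 days after pin-tool dosing on the day after seeding. Dosing used one drug alone or a fixed anchor-drug dose plus five library-drug doses (not always all listed) in √10 steps, and values are medians of duplicate plates.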

[2] = compound: CN1CCC(CNc2ccc3ncc(-c4cccc(OC(F)(F)F)c4)n3n2)CC1 [SGI-1776] + Nc1nc2[nH]cc(CCc3ccc(C(=O)N[C@@H](CCC(=O)O)C(=O)O)cc3)c2c(=O)[nH]1 [Pemetrexed] (partner 0.2 µM)
How it was run: as §1

[3] = compound: Nc1ccccc1NC(=O)c1ccc(CNC(=O)OCc2cccnc2)cc1 [Entinostat] + Cc1nc(Nc2ncc(C(=O)Nc3c(C)cccc3Cl)s2)cc(N2CCN(CCO)CC2)n1 [Dasatinib] (partner 0.075 µM)
How it was run: as §1

[4] = compound: Nc1ccccc1NC(=O)c1ccc(CNC(=O)OCc2cccnc2)cc1 [Entinostat] + Nc1nc2[nH]cc(CCc3ccc(C(=O)N[C@@H](CCC(=O)O)C(=O)O)cc3)c2c(=O)[nH]1 [Pemetrexed] (partner 0.2 µM)
How it was run: as §1

| Cell Line | relative viability ([1]; first compound 0.08 µM) | relative viability ([1]; first compound 0.8 µM) | relative viability ([1]; first compound 2.53 µM) | relative viability ([1]; first compound 8 µM) | relative viability ([2]; first compound 0.08 µM) | relative viability ([2]; first compound 0.8 µM) | relative viability ([2]; first compound 2.53 µM) | relative viability ([2]; first compound 8 µM) | relative viability ([3]; first compound 0.02 µM) | relative viability ([3]; first compound 0.06325 µM) | relative viability ([3]; first compound 0.2 µM) | relative viability ([3]; first compound 0.6325 µM) | relative viability ([3]; first compound 2 µM) | relative viability ([4]; first compound 0.02 µM) | relative viability ([4]; first compound 0.06325 µM) | relative viability ([4]; first compound 0.2 µM) | relative viability ([4]; first compound 0.6325 µM) | relative viability ([4]; first compound 2 µM) |
| --- | --- | --- | --- | --- | --- | --- | --- | --- | --- | --- | --- | --- | --- | --- | --- | --- | --- | --- |
| HOP-62 | 1.2 | 1.13 | 1.03 | 1.1 | 0.306 | 0.363 | 0.325 | 0.31 | 0.718 | 0.682 | 0.588 | 0.29 | 0.161 | 0.23 | 0.301 | 0.286 | 0.229 | 0.188 |
| IA-LM | 1.13 | 1.2 | 1.3 | 1.07 | – | – | – | – | – | – | – | – | – | – | – | – | – | – |
| LC-2-ad | 0.999 | 0.922 | 0.934 | 0.685 | 0.286 | 0.288 | 0.285 | 0.254 | 0.516 | 0.533 | 0.428 | 0.222 | 0.165 | 0.286 | 0.276 | 0.28 | 0.302 | 0.33 |
| LCLC-97TM1 | 0.932 | 0.952 | 0.945 | 0.829 | 0.182 | 0.2 | 0.143 | 0.182 | 0.882 | 0.646 | 0.748 | 0.782 | 0.615 | 0.149 | 0.169 | 0.148 | 0.196 | 0.168 |
| LCLC-103H | 0.88 | 0.705 | 0.748 | 0.637 | 0.488 | 0.446 | 0.452 | 0.466 | 0.478 | 0.458 | 0.48 | 0.362 | 0.224 | 0.472 | 0.463 | 0.443 | 0.454 | 0.426 |
| LK-2 | 1.26 | 1.23 | 1.35 | 0.682 | 0.295 | 0.352 | 0.291 | 0.201 | 0.292 | 0.389 | 0.388 | 0.286 | 0.301 | 0.365 | 0.278 | 0.282 | 0.276 | 0.132 |
| LOU-NH91 | 1.06 | 0.893 | 0.926 | 0.762 | 0.371 | 0.371 | 0.405 | 0.446 | 0.565 | 0.607 | 0.574 | 0.566 | 0.509 | 0.381 | 0.333 | 0.326 | 0.341 | 0.379 |
| LU99A | 0.868 | 0.8 | 0.784 | 0.41 | 0.176 | 0.218 | 0.178 | 0.189 | 0.529 | 0.577 | 0.451 | 0.477 | 0.439 | 0.188 | 0.181 | 0.184 | 0.175 | 0.179 |
| LXF-289 | 0.98 | 0.974 | 1.01 | 0.971 | 0.875 | 1 | 0.808 | 0.9 | 0.209 | 0.261 | 0.177 | 0.178 | 0.185 | 0.878 | 0.878 | 0.869 | 0.719 | 0.665 |
| NCI-H23 | 0.969 | 0.932 | 0.781 | 0.333 | 0.763 | 0.799 | 0.659 | 0.569 | 0.781 | 0.971 | 0.961 | 0.741 | 0.378 | 0.76 | 0.892 | 0.728 | 0.685 | 0.319 |
| NCI-H322M | 0.93 | 1.07 | 0.859 | 0.683 | 0.648 | 0.65 | 0.59 | 0.504 | 0.271 | 0.274 | 0.275 | 0.298 | 0.313 | 0.66 | 0.692 | 0.716 | 0.599 | 0.583 |
| NCI-H358 | 0.698 | 0.553 | 0.467 | 0.198 | 0.177 | 0.218 | 0.168 | 0.161 | 0.181 | 0.136 | 0.158 | 0.115 | 0.109 | 0.163 | 0.168 | 0.158 | 0.128 | 0.135 |
| NCI-H441 | 0.992 | 0.925 | 1.17 | 0.728 | 0.276 | 0.258 | 0.299 | 0.26 | 0.705 | 0.602 | 0.557 | 0.259 | 0.124 | 0.287 | 0.29 | 0.255 | 0.227 | 0.166 |
| NCI-H460 | 1.01 | 0.947 | 0.998 | 0.716 | 0.0693 | 0.062 | 0.0616 | 0.0609 | 0.52 | 0.548 | 0.235 | 0.0904 | 0.0466 | 0.0727 | 0.068 | 0.076 | 0.0606 | 0.041 |
| NCI-H520 | 0.826 | 0.895 | 0.783 | 0.51 | 0.784 | 0.692 | 0.553 | 0.348 | 0.248 | 0.335 | 0.238 | 0.325 | 0.286 | 0.644 | 0.712 | 0.875 | 0.689 | 0.418 |
| NCI-H522 | – | – | – | – | 0.953 | 0.867 | 0.98 | 0.889 | 0.882 | 1.14 | 1.16 | 1.23 | 0.795 | 0.848 | 1.21 | 1.12 | 1.04 | 0.774 |
| NCI-H727 | 0.988 | 0.971 | 0.926 | 0.671 | – | – | – | – | 0.475 | 0.419 | 0.412 | 0.219 | 0.273 | – | – | – | – | – |
| NCI-H1299 | 1.08 | 1.11 | 1.07 | 1.01 | – | – | – | – | – | – | – | – | – | – | – | – | – | – |
| NCI-H1623 | 0.984 | 0.859 | 0.893 | 0.901 | – | – | – | – | 0.644 | 0.525 | 0.478 | 0.412 | 0.366 | – | – | – | – | – |
| NCI-H1648 | – | – | – | – | 0.617 | 0.868 | 0.688 | 0.683 | – | – | – | – | – | 0.736 | 0.685 | 0.772 | 0.38 | 0.407 |
| NCI-H1703 | 0.403 | 0.322 | 0.291 | 0.282 | – | – | – | – | – | – | – | – | – | – | – | – | – | – |
| NCI-H1792 | – | – | – | – | 0.965 | 0.754 | 0.745 | 0.649 | 0.692 | 0.802 | 0.825 | 0.452 | 0.402 | 0.844 | 0.765 | 0.896 | 0.374 | 0.191 |

Reference: the supplement of paper PMC10307832
